This note sets out measurements from patent publication US20200270588A1, “GLUCOSYL TRANSFERASE POLYPEPTIDES AND METHODS OF USE” (Syngenta Participations AG, priority 2017, published 2020).

Each structure is given as a SMILES string.

Format in all cases: biochemical
The target in assay [1] is T1, Zea mays bx9 glucosyl transferase (C-terminally his tagged SEQ ID NO: 1) (Zea mays, UniProt B4G072).
T1 construct: His tag (C); made in house; host or cells: E. coli BL21 (DE3), pET24a
T1 sequence (B4G072 1-462): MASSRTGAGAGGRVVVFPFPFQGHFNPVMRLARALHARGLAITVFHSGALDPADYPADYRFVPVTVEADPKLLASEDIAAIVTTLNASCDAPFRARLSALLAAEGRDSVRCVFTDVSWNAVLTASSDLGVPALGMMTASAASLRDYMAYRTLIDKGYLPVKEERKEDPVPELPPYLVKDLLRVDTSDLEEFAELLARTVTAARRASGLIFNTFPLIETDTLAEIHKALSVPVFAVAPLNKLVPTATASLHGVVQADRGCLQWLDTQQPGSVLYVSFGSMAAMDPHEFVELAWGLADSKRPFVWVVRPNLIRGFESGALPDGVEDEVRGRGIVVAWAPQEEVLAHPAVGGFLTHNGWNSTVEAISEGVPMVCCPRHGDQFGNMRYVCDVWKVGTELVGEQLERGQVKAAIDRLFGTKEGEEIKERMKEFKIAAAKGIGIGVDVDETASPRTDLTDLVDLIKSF
Briefly: UDP-Glo glucosyl transferase assay, purified enzyme. To be noted: for Activity: herbicide mM: V 0.300, VI 0.250, VII 0.210, IV, VIII, XI, XXI, XX, XVIII, XVI, XV, XIV 0.200, others 1.000. The procedure: (§1) Glucosyl transferase activity is assayed via measurement of acceptor substrate-dependent production of UDP from ultrapure UDP-glucose using the Promega UDP-Glo™ method and according to the manufacturer's instructions. Assays are run in 96 well microtiter plates.
(§2) Enzyme, typically at a stock concentration of ˜2 mg/ml is diluted to an appropriate concentration in 50 mM K^+ Hepes buffer at pH7.5 containing 0.5 mg/mL bovine serum albumin (BSA) and 5 ul aliquots of this diluted enzyme added to each well of a Perkin Elmer white ½ area 96 well plate. […] Assays are run for an appropriate time (usually 10 to 60 min) so that the amount of UDP formed lies within the most nearly linear part of the UDP standard curve and are stopped with the addition and mixing of 25 ul UDP-Glo™ detection reagent (prepared as described below). Plates are then incubated at room temperature for 60 minutes and then read in a luminescence plate reader (Perkin Elmer Envision 2130 Multilabel Reader). A UDP standard curve is run alongside each set of assays and reagent blank control assays run with DMSO in place of test herbicide. Typically, 300 pmol of UDP corresponds to a Relative Luminescence Unit (RLU) reading of about 1.5E7 and the response curve between 0 and 600 pmol is fitted to a polynomial function (see for example FIG. 2).
(§3) The UDP-Glo™ reagents are made up and used according to the manufacturer's instructions. Thus, Nucleotide Detection Buffer and ATP are combined to make nucleotide detection reagent (NDR) dispensed into aliquots and frozen to be freshly thawed before use.
(§4) Km and kcat values in respect of UDP-glucose are derived by carrying out experiments to measure initial rates over a suitable range of concentrations of UDP glucose out at a fixed near saturating concentration of acceptor substrate. Best fit values of kcat, Km and kcat/Km are obtained by direct fitting of the data to the Michaelis-Menten equation using Graphpad Prism™ software.

Assay [2] addresses T2, SEQ ID NO 17, zmBX9 S117V, M279F, A334K mutant (Zea mays, UniProt B4G072, A334K/M279F/S117V).
T2 construct: polypeptides were the C-terminally his-tagged; His tag (C); made in house
The assay is described as above. To be noted: for Activity: herbicide mM: V 0.300, VI 0.250, VII 0.210, IV, VIII, XI, XXI, XX, XVIII, XVI, XV, XIV 0.200, others 1.000. The method, then:
as §1, §2, §3, §4
(§5) Variants of C-terminally his tagged SEQ ID No:1 (w/t bx9 from Zea mays), exemplified as SEQ ID 16-30, were cloned, purified and assayed as described in Example 1. FIG. 4 depicts the data from some experiments to determine the kinetic parameters of some of these variants in respect of herbicide VI and table 12 summarizes the estimates of kinetic parameters obtained from further such experiments in respect of a range of herbicides.
(§6) Table 13 summarizes the results obtained from assays, run as described in Example 1, using a variety of alcohol and aminal PSII herbicides as substrates of the Zea mays bx9 w/t (i.e. C-terminally his tagged SEQ ID no 1) and various mutants of the same, selected from SEQ ID NO: 16-30). All of these proteins were C-terminally his-tagged, expressed and purified as described in Example 1. Assays were run and analyzed as described in example 1. It is seen that various of the mutations herein and combinations thereof led to significant improvements (over the w/t bx9 protein) in catalytic activity versus various of the herbicides and that these improvements are often of sufficient magnitude to be useful for conferring improved herbicide tolerance upon crop. This is especially the case given that even the unmutated w/t bx9 enzyme which has only modest glucosyl transferase activity (for example against compounds V and VI) was nevertheless adequately active to confer significant herbicide tolerance in the glass house (as shown in example 9) even without mutational improvement. It is also seen that particular mutations can lead to very much improved activity in respect of some chemistries but not to others but that, overall, there is at least one variant within the scope of the current invention that provides significant and useful improvement in tolerance to each of the chemistries tested.

Assay [3] addresses T3, SEQ ID NO 21, mutant of Zea mays bx9 glucosyl transferase (Zea mays, UniProt B4G072, A334K/F21Y/L194V/M279F/S117V).
T3 construct: His tag (C); made in house
The assay is described as above. To be noted: lower block, concentration printed only in upper block: V 0.300, VII 0.210; IV, VIII, XI, XXI, XX, XVIII, XVI, XV, XIV 0.200; others 1.000 mM. The procedure:
as §1, §2, §3, §4, §5, §6

Assay [4] addresses T4, SEQ ID NO 22, mutant of Zea mays bx9 glucosyl transferase (Zea mays, UniProt B4G072, A334K/F21Y/M279F/S117V/T220P).
T4 construct: His tag (C); made in house
The assay is described as above. To be noted: lower block, concentration printed only in upper block: V 0.300, VII 0.210; IV, VIII, XI, XXI, XX, XVIII, XVI, XV, XIV 0.200; others 1.000 mM. The method, then: as §1, §2, §3, §4, §5, §6

Assay [5] concerns the target T5, SEQ ID NO 18, mutant of Zea mays bx9 glucosyl transferase (Zea mays, UniProt B4G072, A281K/A334K/F21Y/M279F/S117V).
T5 construct: His tag (C); made in house
The description is as above. The following applies: herbicide mM: V 0.300, VI 0.250, VII 0.210; IV, VIII, XI, XXI, XX, XVIII, XVI, XV, XIV 0.200; others 1.000. The method, then: as §1, §2
(§7) The UDP-Glo™ reagents are made up and used according to the manufacturer's instructions. Thus, Nucleotide Detection Buffer and ATP are combined to make nucleotide detection reagent (NDR) dispensed into aliquots and frozen to be freshly thawed before use. […]
as §6

Assay [6] has as its target T6, SEQ ID NO 19, mutant of Zea mays bx9 glucosyl transferase (Zea mays, UniProt B4G072, A281K/A334K/L194V/M279F/S117V).
T6 construct: His tag (C); made in house
The assay is described as above. To be noted: herbicide mM: V 0.300, VI 0.250, VII 0.210; IV, VIII, XI, XXI, XX, XVIII, XVI, XV, XIV 0.200; others 1.000. The procedure: as §1, §2, §7, §6

Assay [7] deals with T7, SEQ ID NO 23, mutant of Zea mays bx9 glucosyl transferase (Zea mays, UniProt B4G072, A334K/F21Y/L194C/M279F/S117V).
T7 construct: His tag (C); made in house
Described as above. The following applies: lower block, concentration printed only in upper block: V 0.300, VII 0.210; IV, VIII, XI, XXI, XX, XVIII, XVI, XV, XIV 0.200; others 1.000 mM. The method, then: as §1, §2, §7, §6

Assay [8] deals with T8, SEQ ID NO 20, mutant of Zea mays bx9 glucosyl transferase (Zea mays, UniProt B4G072, A281K/A334K/F21Y/L194V/M279F/S117V).
T8 construct: His tag (C); made in house
To be noted: lower block, concentration printed only in upper block: V 0.300, VII 0.210; IV, VIII, XI, XXI, XX, XVIII, XVI, XV, XIV 0.200; others 1.000 mM. The method, then: as §1
as §2, with “herbicide.” for “herbicide. Typically, 300 pmol of UDP corresponds to a Relative Luminescence Unit (RLU) reading of about 1.5E7 and the response curve between 0 and 600 pmol is fitted to a polynomial function (see for example FIG. 2).”
as §3, §4
All of these proteins were C-terminally his-tagged, expressed and purified as described in Example 1. Assays were run and analyzed as described in example 1.

Take `CN1CC(O)N(c2cc(C(F)(F)F)n(C)n2)C1=O` (stereo not drawn) [XII]: the Activity is reported as 0.007 pmol/sec/pmol enzyme in assay [1] and 0.018 pmol/sec/pmol enzyme in assay [2].
Consider `CN1CC(O)N(c2cc(C(C)(C)C)on2)C1=O` (stereo not drawn) [XXII], for which the Activity in assay [1] worked out at 0.000 pmol/sec/pmol enzyme; in assay [2] it was 0.023 pmol/sec/pmol enzyme; in assay [3] it was 0.015 pmol/sec/pmol enzyme; in assay [4], 0.101 pmol/sec/pmol enzyme; in assay [5], 0.186 pmol/sec/pmol enzyme; in assay [6], 0.080 pmol/sec/pmol enzyme. Also, the Activity in assay [7] is 0.020 pmol/sec/pmol enzyme; in assay [8] it was 0.120 pmol/sec/pmol enzyme.
For `CC1C(=O)N(c2cc(C(F)(F)F)n(C)n2)C(O)[C@@H]1C` (stereo partly drawn) [XVII], the Activity in assay [1] was −0.001 pmol/sec/pmol enzyme; in assay [2], 0.083 pmol/sec/pmol enzyme; in assay [3], 0.195 pmol/sec/pmol enzyme; in assay [4], 0.134 pmol/sec/pmol enzyme; in assay [5] it was 0.237 pmol/sec/pmol enzyme; in assay [6] it was 0.331 pmol/sec/pmol enzyme. Further, the Activity in assay [7] is on record as 0.096 pmol/sec/pmol enzyme; in assay [8], 0.402 pmol/sec/pmol enzyme.
In the case of `CSc1nnc(C(C)(C)C)c(=O)n1N` [metribuzin], the “increase in activity over bx9 w/t protein” value in assay [2] is 1.3-1.5 ×.
Take `CON1C(=O)N(c2cc(C(F)(F)F)c(Cl)cn2)C(O)C1C` (stereo not drawn) [XXI]: the kcat in assay [1] (0.5 mM UDP-glucose, 25 C, pH 7.5, DMSO reagent blank as control) was 0.0001 s⁻¹. Moreover, the Activity in assay [1] is recorded as 0.000 pmol/sec/pmol enzyme; in assay [2], 0.919 pmol/sec/pmol enzyme; in assay [3] it was 1.827 pmol/sec/pmol enzyme; in assay [4], 1.714 pmol/sec/pmol enzyme; in assay [5], 1.524 pmol/sec/pmol enzyme; in assay [6], 1.534 pmol/sec/pmol enzyme. Moreover, the Activity was determined as 1.746 pmol/sec/pmol enzyme in assay [7] and 1.457 pmol/sec/pmol enzyme in assay [8].
Turning to `C[C@H]1C(O)N(c2cc(C(C)(C)F)ncn2)C(=O)N1C` (stereo partly drawn) [XIV], the Activity in assay [1] was −0.001 pmol/sec/pmol enzyme; in assay [2], 0.037 pmol/sec/pmol enzyme; in assay [7], 0.196 pmol/sec/pmol enzyme; in assay [8], 0.411 pmol/sec/pmol enzyme.
In the case of `CC1CC(O)N(c2ncc(C(F)(F)F)s2)C1=O` (stereo not drawn) [XVI], the Activity in assay [2] was found to be 0.073 pmol/sec/pmol enzyme; in assay [4], 0.285 pmol/sec/pmol enzyme; in assay [5] it was 0.359 pmol/sec/pmol enzyme; in assay [8], 0.687 pmol/sec/pmol enzyme.
For the compound `COC1=C(C)C(O)N(c2cc(C(C)(C)C)ncn2)C1=O` (stereo not drawn) [X], the Activity is listed as −0.001 pmol/sec/pmol enzyme in assay [1], 0.102 pmol/sec/pmol enzyme in assay [6] and 0.137 pmol/sec/pmol enzyme in assay [8].
Take `C[C@@H]1C(O)N(c2cc(C(C)(C)C)on2)C(=O)N1C` (stereo partly drawn) [VII]: the Activity in assay [1] is listed as 0.000 pmol/sec/pmol enzyme; in assay [4], 0.042 pmol/sec/pmol enzyme; in assay [5], 0.087 pmol/sec/pmol enzyme; in assay [8] it was 0.049 pmol/sec/pmol enzyme.
`CON1C(=O)N(c2cc(C(F)(F)F)c(C)cn2)C(O)[C@@H]1C` (stereo partly drawn) [XV]: the Activity in assay [2] is reported as 0.833 pmol/sec/pmol enzyme; in assay [3] it was 1.711 pmol/sec/pmol enzyme; in assay [4], 1.530 pmol/sec/pmol enzyme; in assay [6], 1.391 pmol/sec/pmol enzyme; in assay [7] it was 1.641 pmol/sec/pmol enzyme.

The term kcat denotes the number of substrate molecules converted per active site and unit of time at saturation.
